# Measurements taken from patent publication US20070142396A1, “Treatment of pain with 1-[3-[4-(3-chlorophenyl)-1-piperazinyl]propyl]-5-methoxy-3,4-dihydro-2(1H)-quinolone or salt thereof” (Vela Pharmaceuticals, Inc., priority 2005, published 2007).
# Legend:
# Assay type in all cases: in vivo, rat
# [1] = system: rats with spinal nerve ligature (Chung neuropathic pain model); assay: Chung spinal nerve ligation (L5 and L6) neuropathic pain model, thermal stimulation (Example 2); conditions: for change of paw-withdrawal latency vs vehicle: morphine 16 mg/kg i.p.
# Excerpt: (§1) The Chung neuropathic pain model (Kim and Chung, Pain, 50: 355-363, 1992), employs spinal nerve ligation (SNL) in a rat. Tight ligature of spinal nerves in a rat is associated with hyperalgesia, allodynia and spontaneous pain. Antihyperalgesics reduce these chronic signs of pain hypersensitivity. Thus, the Chung model permits testing of the antihyperalgesic activity of compounds in rats with neuropathic pain. The Chung model constitutes a model for peripheral neuropathic pain in humans, and was employed as follows.
# (§2) Male Rj: Wistar (Han) rats, weighing 264-369 g at the beginning of the experiment, were obtained from Elevage Janvier, 53940 Le Genest-Saint-Isle, France. The rats were acclimatized to laboratory conditions for at least 5 days before the surgery phase of the experiment. The rats were housed in groups of five in macrolon cages (41×25×14 cm) on wood litter (Litalabo—SPPS, 95100 Argenteuil, France) with free access to food (code 113—SAFE, 91360 Epinay-sur-Orge, France) and water until tested. The animal houses were maintained under artificial lighting (12 hours) between 7:00 AM and 7:00 PM in a controlled ambient temperature of 21±3° C., and with relative humidity maintained at 40-70%.
# (§3) Rats (264-369 g) were anesthetized with sodium pentobarbital (50 mg/kg i.p.), and an incision at the L4-S2 level was made to expose the left L5 and L6 spinal nerves. A ligature was tied tightly around each nerve. The wound was then sutured. The rats received an i.m. injection of 50,000 IU penicillin G and were allowed to recover. At least 2 weeks after the surgery, when the chronic state was fully installed, rats were submitted consecutively to tactile and thermal stimulation of both the non-lesioned and the lesioned hindpaws.
# (§4) Doses of OPC-14523 were prepared in stock solutions (weight per volume, W/V), then in dilutions (volume per volume, V/V), as appropriate. The compound was dispersed in 0.5% tragacanth in distilled water. Morphine was dissolved in physiological saline as a reference standard for treatment of pain. The solutions for the test and reference substances were prepared fresh on the day of the experiment.
# (§5) The vehicle, OPC-14523, and reference (morphine) compound were each administered in a volume of 5 ml/kg body weight. The doses of OPC-14523 were expressed in mg of substance per kg body weight and administered orally (p.o.). The vehicle control was also administered orally. The dose of morphine was expressed in mg of hydrochloride salt per kg body weight and administered i.p.
# (§6) Each animal was tested at 30 minutes, 1 hour, 2 hours and 4 hours after the administration of a substance. Testing occurred in the morning.
# (§7) To evaluate chronic drug administration and hypersensitivity induction, animals received a second substance treatment in the afternoon, after acute testing. The animals then received twice-daily substance treatment for an additional 9 days. To test for induction of hypersensitivity, the animals were tested, on the ninth day, 30 minutes before the first substance administration in the morning. The effect of chronic administration was tested on the tenth day 30 minutes, 1 hour, 2 hours and 4 hours after the administration of the substance in the morning.
# An apparatus (Ugo Basile, Product reference: 7371, Comerio, Italy) consisted of six individual Plexiglas® boxes (17×11×14 cm) placed upon an elevated glass floor. A rat was placed in the box and left free to habituate for 10 minutes. Then, a mobile infrared radiant source was focused under the non-lesioned and lesioned hindpaws. The paw-withdrawal latencies were automatically recorded. Paw withdrawal interrupts the reflected radiation and switches off the counter and the light source. In order to prevent tissue damage, the test was terminated after 45 seconds if no reaction was noted.
# Prior to receiving drug treatment, all animals were submitted to tactile stimulation and assigned to treatment groups, matched on the basis of their pain response. […]
# [2] = system: rats with spinal nerve ligature (Chung neuropathic pain model); assay: Chung spinal nerve ligation (L5 and L6) neuropathic pain model, tactile stimulation with electronic Von Frey probe (Example 2)
# Excerpt: as §1, §2, §3, §4, §5, §6, §7
# (§8) For tactile stimulation, the animal was placed under an inverted Plexiglas® box (17×11×14 cm) on a grid floor. The tip of an electronic Von Frey probe (Bioseb, Model 1610, Chaville, France) was applied with increasing pressure to the non-lesioned hindpaw or the lesioned hindpaw. The force required to induce paw withdrawal was automatically recorded. This procedure was carried out three times for each paw, and the mean force per paw was calculated to provide basic scores per animal.
# Prior to receiving drug treatment, all animals were submitted to tactile stimulation and assigned to treatment groups, matched on the basis of their pain response. Each treatment group consisted of eight rats. The testing was performed blind. […]
# [3] = system: rats with spinal nerve ligature (Chung neuropathic pain model); assay: Chung neuropathic pain model, cold allodynia on cold plate (Example 3); conditions: morphine 128 mg/kg p.o.; for change of total number of paw withdrawal responses: cold plate
# Excerpt: (§9) The rats used in this experiment were the same rats used in Example 2. The materials and methods for this experiment were identical to those for Example 2 with the following exceptions: there was a 1-week washout between the two experiments, and the rats weighed 290-403 g at the start of this experiment. Prior to receiving drug treatment, all animals were submitted to tactile stimulation and assigned to treatment groups matched on the basis of their pain response. No account was taken of the treatment administered during the first experiment in assigning animals to treatment groups for this experiment.
# (§10) All of the substances were administered orally. Morphine, dissolved in distilled water, was administered at 128 mg/kg dose p.o. Rats were tested 30 minutes, 1 hour, 2 hours, and 4 hours after administration of the substances.
# Behavioral testing was carried out by measuring cold allodynia using an apparatus consisting of a cold plate maintained at 4±1° C. Rats were individually placed on the cold plate for a period of 5 minutes. The latency to the first paw withdrawal response and the number and total duration of withdrawal responses in 5 minutes were recorded for both the lesioned and the non-lesioned hindpaws.
# [4] = system: rats with spinal nerve ligature (Chung neuropathic pain model); assay: Chung neuropathic pain model, tactile stimulation, second experiment (Example 3); conditions: acute, morphine 128 mg/kg p.o.; for change of force inducing paw withdrawal vs vehicle: lesioned paw
# Experimental: as §8, §9, §10
# [5] = hypersensitivity test after 8 days of twice daily administration, morphine
structure (smiles),measurement,setting,value
"CN1CC[C@]23c4c5ccc(O)c4O[C@H]2[C@@H](O)C=C[C@H]3[C@H]1C5 [Morphine, morphine, reference compound]",change of paw-withdrawal latency vs vehicle,"[1]; acute, lesioned paw, 30 minutes",+132%
same,change of paw-withdrawal latency vs vehicle,"[1]; acute, lesioned paw, 1 hour",+121%
same,change of paw-withdrawal latency vs vehicle,"[1]; acute, lesioned paw, 4 hours",+204%
same,change of paw-withdrawal latency vs vehicle,"[1]; acute, non-lesioned paw, 30 minutes, p<0.05",+15%
same,change of paw-withdrawal latency vs vehicle,"[1]; chronic, lesioned paw, 30 minutes, p<0.05",+108%
same,change of paw-withdrawal latency vs vehicle,"[1]; chronic, lesioned paw, 1 hour, p<0.05",93%
same,change of paw-withdrawal latency vs vehicle,"[1]; chronic, non-lesioned paw, 2 hours, p<0.05",−24%
same,change of paw-withdrawal latency vs vehicle,"[1]; chronic, non-lesioned paw, 4 hours, p<0.05",−23%
same,Paw Withdrawal Latency (s) Lesioned Paw,[1]; [5],11.7 (NS) s
same,Paw Withdrawal Latency (s) Non-lesioned Paw,[1]; [5],34.5 (NS) s
same,change of force inducing paw withdrawal vs vehicle,"[2]; acute, morphine 16 mg/kg i.p., lesioned paw, 30 minutes",+206%
same,change of force inducing paw withdrawal vs vehicle,"[2]; acute, morphine 16 mg/kg i.p., lesioned paw, 1 hour",+124%
same,effect on force inducing paw withdrawal,"[2]; acute, morphine 16 mg/kg i.p., lesioned paw, 2 hours",tended to increase
same,effect on force inducing paw withdrawal,"[2]; acute, morphine 16 mg/kg i.p., non-lesioned paw",no effects
same,change of force inducing paw withdrawal vs vehicle,"[2]; chronic, day 10, morphine, lesioned paw, 30 minutes, p<0.01",+86%
same,change of force inducing paw withdrawal vs vehicle,"[2]; chronic, day 10, morphine, lesioned paw, 1 hour, p<0.001",+223%
same,change of force inducing paw withdrawal vs vehicle,"[2]; chronic, day 10, morphine, lesioned paw, 2 hours, p=0.09",−50%
same,effect on force inducing paw withdrawal,"[2]; chronic, day 10, morphine, non-lesioned paw","weak, variable effects"
same,Force Inducing Paw Withdrawal (g) Lesioned Paw,[2]; [5],15.1 (NS) g
same,Force Inducing Paw Withdrawal (g) Non-lesioned Paw,[2]; [5],73.7 (NS) g
same,effect on force inducing paw withdrawal vs vehicle control,"[2]; hypersensitivity test, repeated treatment with morphine, lesioned or non-lesioned paw",no significant effects
same,effect on paw-withdrawal latency of the first withdrawal,"[3]; cold plate 4°C, not statistically significant",tended to increase
same,change of total number of paw withdrawal responses,"[3]; 30 minutes, p<0.001",−61%
same,change of total number of paw withdrawal responses,"[3]; 1 hour, p<0.05",−65%
same,change of total number of paw withdrawal responses,"[3]; 2 hours, p<0.01",−51%
same,change of total number of paw withdrawal responses,"[3]; 4 hours, p<0.01",−56%
same,change of force inducing paw withdrawal vs vehicle,"[4]; 30 minutes, p<0.05",+137%
same,change of force inducing paw withdrawal vs vehicle,"[4]; 1 hour, p<0.01",+198%
same,change of force inducing paw withdrawal vs vehicle,"[4]; 2 hours, p=0.05",+168%
same,effect on force inducing paw withdrawal,[4]; non-lesioned paw,no effects
